Laboratory results: patent US20130217664A1, “NOVEL COMPOUNDS USEFUL FOR THE TREATMENT OF DEGENERATIVE AND INFLAMMATORY DISEASES” (priority 2012, published 2013)
Where two headings read alike, the source gives them in different places.

What was measured:
human JAK3 = target: T1, human JAK3 (Homo sapiens, UniProt P52333); assay: JAK3 inhibition assay; type: biochemical; conditions: recombinant human JAK3 catalytic domain; polyGT substrate
T1 construct: catalytic domain (amino acids 781-1124; catalog number PV3855); purchased Invitrogen PV3855
Method in brief: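 Radiometric kinase assay: 0.5 ng JAK3 with 2.5 μg polyGT in Tris pH 7.5/MgCl2 buffer, 1 μM ATP plus 0.25 μCi 33P-γ-ATP, 1% DMSO, 45 min at 30 °C, stopped with phosphoric acid.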

[1] = tested on: pSTAT1(2)-luciferase reporter in HeLa cells triggered with human OSM; assay: JAK-STAT signalling assay; type: cell-based; conditions: read-out: JAK-STAT IC50
Method in brief: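 HeLa cells transiently co-transfected with pSTAT1(2)-luciferase and LacZ control reporter, preincubated with compound 60 min, then stimulated with human OSM (33 ng/mL final) overnight at 37 °C. Luciferase read by luminescence; percent inhibition from vehicle and no-trigger controls, EC50 from dose-response.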

human JAK1 = target: T2, human JAK1 (Homo sapiens, UniProt P23458); assay: JAK1 inhibition assay (polyGT substrate / Ulight-JAK1 peptide); type: biochemical; conditions: recombinant human JAK1 catalytic domain; polyGT or Ulight-JAK1 peptide assay
T2 construct: catalytic domain, amino acids 866-1154; catalog number PV4774; purchased Invitrogen PV4774
Method in brief: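 Two formats. PolyGT radiometric: 45 min at 30 °C, stopped with phosphoric acid, counted as cpm. Ulight-JAK1 peptide: 60 min at room temperature, stopped with Eu-anti-phosphotyrosine/EDTA, read as RFU. Percent inhibition normalised to vehicle and 10 μM staurosporine.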

[2] = Homo sapiens, HeLa, HeLa cells, pSTAT1(2)-luciferase reporter, human OSM 33 ng/mL
[3] = HeLa cells, pSTAT1(2)-luciferase reporter, human OSM 33 ng/mL

T2 sequence (P23458 866-1154): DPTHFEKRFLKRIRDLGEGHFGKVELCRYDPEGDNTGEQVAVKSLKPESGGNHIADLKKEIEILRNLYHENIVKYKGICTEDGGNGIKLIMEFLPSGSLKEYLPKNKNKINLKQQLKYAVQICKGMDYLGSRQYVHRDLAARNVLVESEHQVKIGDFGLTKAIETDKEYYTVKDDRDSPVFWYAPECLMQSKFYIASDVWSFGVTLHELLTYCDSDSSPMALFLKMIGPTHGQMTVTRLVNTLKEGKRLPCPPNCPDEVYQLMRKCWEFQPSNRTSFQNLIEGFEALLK
T1 sequence (P52333 781-1124): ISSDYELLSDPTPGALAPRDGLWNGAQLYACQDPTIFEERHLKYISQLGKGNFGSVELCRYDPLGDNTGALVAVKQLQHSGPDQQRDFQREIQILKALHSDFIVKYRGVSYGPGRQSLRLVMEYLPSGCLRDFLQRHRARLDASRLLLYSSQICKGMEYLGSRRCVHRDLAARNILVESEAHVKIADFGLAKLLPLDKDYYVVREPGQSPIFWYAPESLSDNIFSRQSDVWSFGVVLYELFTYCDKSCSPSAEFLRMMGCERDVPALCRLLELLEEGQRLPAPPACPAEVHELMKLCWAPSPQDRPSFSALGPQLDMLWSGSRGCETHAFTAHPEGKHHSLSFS

| SMILES | IC50 (human JAK3) [nM] | IC50 [1, 2] [nM] | IC50 (human JAK1) [nM] | IC50 [1, 3] [nM] | IC50 ([1]; Homo sapiens, HeLa) [nM] |
| --- | --- | --- | --- | --- | --- |
| CCc1cc(-c2cccnc2)ccc1N(C)c1cc2c(cn1)ncn2C [Compound 94, N-(2-ethyl-4-(pyridin-3-yl)phenyl)-N,1-dimethyl-1H-imidazo[4,5-c]pyridin-6-amine] | 501 to 1000 | 1 to 500 | 0.01 to 100 | – | – |
| CCc1cc(-c2cncnc2)ccc1N(C)c1cc2c(cn1)ncn2C [Compound 95, N-(2-ethyl-4-(pyrimidin-5-yl)phenyl)-N,1-dimethyl-1H-imidazo[4,5-c]pyridin-6-amine] | > 1000 | 501 to 1000 | 0.01 to 100 | – | – |
| CCc1cc(C(=O)NCc2ccccc2)ccc1N(C)c1cc2c(cn1)ncn2C [Compound 98, N-benzyl-3-ethyl-4-(methyl(1-methyl-1H-imidazo[4,5-c]pyridin-6-yl)amino)benzamide] | 501 to 1000 | > 1000 | 0.01 to 100 | – | – |
| CCNC(=O)c1ccc(N(C)c2cc3c(cn2)ncn3C)c(CC)c1 [Compound 102, N,3-diethyl-4-(methyl(1-methyl-1H-imidazo[4,5-c]pyridin-6-yl)amino)benzamide] | > 1000 | > 1000 | 0.01 to 100 | – | – |
| CCc1cc(Cn2ccnc2)ccc1N(C)c1cc2c(cn1)ncn2C [Compound 111, N-(4-((1H-imidazol-1-yl)methyl)-2-ethylphenyl)-N,1-dimethyl-1H-imidazo[4,5-c]pyridin-6-amine] | 101 to 500 | 501 to 1000 | 0.01 to 100 | – | – |
| CCc1cc(-c2ccc(C#N)nc2)ccc1N(C)c1cc2c(cn1)ncn2C [Compound 114, 5-(3-ethyl-4-(methyl(1-methyl-1H-imidazo[4,5-c]pyridin-6-yl)amino)phenyl)picolino-nitrile] | 101 to 500 | 1 to 500 | 0.01 to 100 | – | – |
| CCc1cc(-c2cnc(NC(C)=O)nc2)ccc1N(C)c1cc2c(cn1)ncn2C [Compound 115, N-(5-(3-Ethyl-4-(methyl(1-methyl-1H-imidazo[4,5-c]pyridin-6-yl)amino)phenyl)pyrimidin-2-yl)acetamide] | > 1000 | 1 to 500 | 0.01 to 100 | – | – |
| CCc1cc(C(=O)NCCN(C)C)ccc1N(C)c1cc2c(cn1)ncn2C [Compound 119, N-(2-(dimethylamino)ethyl)-3-ethyl-4-(methyl(1-methyl-1H-imidazo[4,5-c]pyridin-6-yl)amino)benzamide] | > 1000 | > 1000 | 0.01 to 100 | – | – |
| CCc1cc(C(=O)NCC#N)ccc1N(C)c1cc2c(cn1)ncn2C [Compound 120, N-(cyanomethyl)-3-ethyl-4-(methyl(1-methyl-1H-imidazo[4,5-c]pyridin-6-yl)amino)benzamide] | 101 to 500 | > 1000 | 0.01 to 100 | – | – |
| CCc1ccc(C(=O)NC(C)(C)C)cc1N(C)c1cc2c(cn1)ncn2C [Compound 123, N-tert-butyl-4-ethyl-3-(methyl(1-methyl-1H-imidazo[4,5-c]pyridin-6-yl)amino)benzamide] | > 1000 | > 1000 | 0.01 to 100 | – | – |
| CCc1cc(-c2ccc(CNC(=O)OC(C)(C)C)s2)ncc1N(C)c1cc2c(cn1)ncn2C [Compound 302] | > 1000 | – | 0.01 to 100 | > 1000 | – |
| CCc1cc(-c2ccc(CN)s2)ncc1N(C)c1cc2c(cn1)ncn2C [Compound 303, [6-(5-Aminomethyl-thiophen-2-yl)-4-ethyl-pyridin-3-yl]-methyl-(1-methyl-1H-imidazo[4,5-c]pyridin-6-yl)-amine] | > 1000 | – | 501 to 1000 | > 1000 | – |
| CCc1cc(-c2ccc(C)s2)ncc1N(C)c1cc2c(cn1)ncn2C [Compound 311, [4-Ethyl-6-(5-methyl-thiophen-2-yl)-pyridin-3-yl]-methyl-(1-methyl-1H-imidazo[4,5-c]pyridin-6-yl)-amine] | 101 to 500 | 1 to 500 | 0.01 to 100 | – | – |
| COc1cc(-c2c(C)nn(C)c2C)ncc1N(C)c1cc2c(cn1)ncn2C [Compound 312] | > 1000 | – | > 1000 | > 1000 | – |
| COc1cc(N2CCOCC2)ncc1N(C)c1cc2c(cn1)ncn2C [Compound 313, (4-Methoxy-6-morpholin-4-yl-pyridin-3-yl)-methyl-(1-methyl-1H-imidazo[4,5-c]pyridine-6-yl)-amine] | 501 to 1000 | – | 0.01 to 100 | > 1000 | – |
| COc1ccc(S(=O)(=O)N2CCCCC2)cc1N(C)c1cc2c(cn1)ncn2C [Compound 314, [2-Methoxy-5-(piperidine-1-sulfonyl)-phenyl]-methyl-(1-methyl-1H-imidazo[4,5-d]pyridin-6-yl)-amine] | > 1000 | – | > 1000 | > 1000 | – |
| COc1cc(S(=O)(=O)N2CCOCC2)ccc1N(C)c1cc2c(cn1)ncn2C [Compound 315, [2-Methoxy-4-(morpholine-4-sulfonyl)-phenyl]-methyl-(1-methyl-1H-imidazo[4,5-d]pyridin-6-yl)-amine] | > 1000 | – | > 1000 | > 1000 | – |
| CCc1cn(CCC#N)nc1N(C)c1cc2c(cn1)ncn2C [Compound 316, 3-{4-Ethyl-3-[methyl-(1-methyl-1H-imidazo[4,5-c]pyridin-6-yl)-amino]-pyrazol-1-yl}-propionitrile] | > 1000 | – | > 1000 | – | > 1000 |
| CN(c1cc2c(cn1)ncn2C)c1ccc(CNC(=O)C(F)F)cc1F [Compound 320] | 501 to 1000 | > 1000 | 0.01 to 100 | – | – |
| CCc1cc(C#N)cc(F)c1N(C)c1cc2c(cn1)ncn2C [Compound 322, 3-Ethyl-5-fluoro-4-[methyl-(1-methyl-M-imidazo[4,5-c]pyridin-6-yl)-amino]-benzonitrile] | > 1000 | > 1000 | 0.01 to 100 | – | – |

Second part, led by results:

| IC50 (human JAK3) [nM] | IC50 [1, 2] [nM] | IC50 (human JAK1) [nM] | IC50 [1, 3] [nM] | SMILES | IC50 ([1]; Homo sapiens, HeLa) [nM] |
| --- | --- | --- | --- | --- | --- |
| 101 to 500 | 1 to 500 | 0.01 to 100 | – | CCc1cc(-c2cnn(C)c2)ccc1N(C)c1cc2c(cn1)ncn2C [Compound 93, N-(2-Ethyl-4-(1-methyl-1H-pyrazol-4-yl)phenyl)-N,1-dimethyl-1H-imidazo[4,5-d]pyridin-6-amine] | – |
| 101 to 500 | 1 to 500 | 0.01 to 100 | – | CCc1cc(C(C)O)ccc1N(C)c1cc2c(cn1)ncn2C (stereo not drawn) [Compound 101, 1-(3-Ethyl-4-(methyl(1-methyl-1H-imidazo[4,5-c]pyridin-6-yl)amino)phenyl)ethanol] | – |
| 101 to 500 | > 1000 | 0.01 to 100 | – | CCc1cc(C(C)(C)O)ccc1N(C)c1cc2c(cn1)ncn2C [Compound 103, 2-(3-Ethyl-4-(methyl(1-methyl-1H-imidazo[4,5-c]pyridin-6-yl)amino)phenyl)propan-2-ol] | – |
| 101 to 500 | > 1000 | 0.01 to 100 | – | CCc1cc(COC)ccc1N(C)c1cc2c(cn1)ncn2C [Compound 105, N-(2-Ethyl-4-(methoxymethyl)phenyl)-N,1-dimethyl-1H-imidazo[4,5-c]pyridin-6-amine] | – |
| 101 to 500 | 501 to 1000 | 0.01 to 100 | – | CCc1cc(O)ccc1N(C)c1cc2c(cn1)ncn2C [Compound 107, 3-ethyl-4-(methyl(1-methyl-1H-imidazo[4,5-c]pyridin-6-yl)amino)phenol] | – |
| 101 to 500 | > 1000 | 0.01 to 100 | – | CCc1cc(OC2CCN(S(C)(=O)=O)C2)ccc1N(C)c1cc2c(cn1)ncn2C (stereo not drawn) [Compound 110, N-(2-Ethyl-4-((1-(methylsulfonyl)pyrrolidin-3-yl)oxy)phenyl)-N,1-dimethyl-1H-imidazo[4,5-c]pyridin-6-amine] | – |
| 0.01 to 100 | 1 to 500 | 0.01 to 100 | – | CCc1cc(-c2ccsc2)ccc1N(C)c1cc2c(cn1)ncn2C [Compound 127, N-(2-ethyl-4-(thiophen-3-yl)phenyl)-N,1-dimethyl-1H-imidazo[4,5-c]pyridin-6-amine] | – |
| 0.01 to 100 | – | 0.01 to 100 | 1 to 500 | CCc1cc(-c2ccc(Cl)s2)ncc1N(C)c1cc2c(cn1)ncn2C [Compound 304, [6-(5-Chloro-thiophen-2-yl)-4-ethyl-pyridin-3-yl]-methyl-(1-methyl-1H-imidazo[4,5-c]pyridin-6-yl)-amine] | – |
| 0.01 to 100 | 501 to 1000 | 0.01 to 100 | – | CCc1cc(CN(C)S(C)(=O)=O)c(F)cc1N(C)c1cc2c(cn1)ncn2C [Compound 319, N-{5-Ethyl-2-fluoro-4-[methyl-(1-methyl-1H-imidazo[4,5-c]pyridin-6-yl)-amino]-benzyl}-N-methyl-methanesulfonamide] | – |
| 0.01 to 100 | 1 to 500 | 0.01 to 100 | – | CCc1cc(CNS(C)(=O)=O)cc(F)c1N(C)c1cc2c(cn1)ncn2C [Compound 323, N-{3-Ethyl-5-fluoro-4-[methyl-(1-methyl-1H-imidazo[4,5-c]pyridin-6-yl)-amino]-benzyl}-methanesulfonamide] | – |
| 0.01 to 100 | 1 to 500 | 0.01 to 100 | – | CCc1cc(CNS(=O)(=O)C(F)F)cc(F)c1N(C)c1cc2c(cn1)ncn2C [Compound 324, N-{3-Ethyl-5-fluoro-4-[methyl-(1-methyl-1H-imidazo[4,5-c]pyridin-6-yl)-amino]-benzyl}-C,C-difluoro-methanesulfonamide] | – |
